Source: PubChem BioAssay (NCI)
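Exposure lasted 48 hours, with cells grown in 96-well plates and compounds tested at five concentrations. Here, GI50 denotes the concentration required for 50% inhibition of growth. The concentration for full growth arrest is given as TGI.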

Experiments:
Experiment in all cases: growth of human tumour cells (NCI), 48 h
[1] = system: UACC-62 melanoma
[2] = system: RXF 393 renal
[3] = system: SK-MEL-28 melanoma
[4] = system: CCRF-CEM leukemia
[5] = system: UACC-257 melanoma
[6] = system: SNB-75 CNS
[7] = system: ACHN renal
[8] = system: KM12 colon
[9] = system: HCT-15 colon
[10] = system: SK-OV-3 ovarian

Compound C[n+]1c(/C=C\C=C\N2CCCCC2)sc2ccccc21 has a GI50 [1] of 0.691 µM, a TGI [1] of 12.4 µM and a GI50 [2] of 3.48 µM. It also gave a TGI [2] of 17.6 µM, a GI50 [3] of 0.552 µM and a TGI [3] of 13.4 µM. The GI50 [4] was 0.299 µM, the TGI [4] was greater than 40.5 µM and the GI50 [5] was 0.278 µM. For the same compound, the TGI [5] was 2.18 µM, the GI50 [6] was 3.93 µM and the TGI [6] was 17 µM. The GI50 [7] was 4.07 µM, the TGI [7] was greater than 53.4 µM and the GI50 [8] was 0.27 µM. It also gave a TGI [8] of 3.02 µM, a GI50 [9] of 10.9 µM and a TGI [9] of 49.2 µM. The GI50 [10] was 0.794 µM and the TGI [10] was 6.79 µM.

CO[C@H](C(=O)[C@@H](O)[C@@H](C)O)[C@@H]1Cc2cc3cc(O[C@H]4C[C@@H](O[C@H]5C[C@@H](O)[C@H](O)C(C)O5)[C@H](O)C(C)O4)c(C)c(O)c3c(O)c2C(=O)[C@H]1O[C@H]1C[C@@H](O[C@H]2C[C@@H](O[C@H]3C[C@@H](OC)[C@H](O)C(C)O3)[C@@H](O)C(C)O2)C(O)(O)C(C)O1 (some centres not stated) gave a GI50 [1] of 0.00601 µM, a TGI [1] of 0.0945 µM and a GI50 [2] of 0.0525 µM. The TGI [2] was 0.306 µM, the GI50 [3] was 0.0439 µM and the TGI [3] was 1.11 µM. For the same compound, the GI50 [4] was 0.138 µM, the TGI [4] was greater than 25 µM and the GI50 [5] was 0.0371 µM. For the same compound, the TGI [5] was 0.511 µM, the GI50 [6] was 0.148 µM and the TGI [6] was 3.53 µM. The GI50 [7] was 0.191 µM, the TGI [7] was greater than 25 µM and the GI50 [8] was 0.102 µM. For the same compound, the TGI [8] was greater than 25 µM, the GI50 [9] was 2.65 µM and the TGI [9] was greater than 25 µM. The GI50 [10] was 0.113 µM and the TGI [10] was greater than 25 µM.

Compound CCOc1ccccc1NC(=O)CCC(=O)OC has a TGI [1] greater than 100 µM, a TGI [2] greater than 100 µM and a TGI [3] greater than 100 µM. For the same compound, the TGI [4] was greater than 66.7 µM, the TGI [5] was greater than 100 µM and the TGI [6] was greater than 100 µM. For the same compound, the TGI [7] was greater than 100 µM, the TGI [8] was greater than 100 µM and the TGI [9] was greater than 100 µM. It also gave a TGI [10] greater than 100 µM.

C=C(CNC(=O)Nc1ccc(-c2ccccc2)cc1)c1ccc(C(=O)Nc2ccccc2N)cc1 was tested, and the GI50 [1] was greater than 100 µM, the TGI [1] was greater than 100 µM and the GI50 [2] was 23.7 µM. The TGI [2] was 59 µM, the GI50 [3] was 48.3 µM and the TGI [3] was greater than 100 µM. For the same compound, the GI50 [4] was 7.32 µM, the TGI [4] was greater than 100 µM and the GI50 [5] was greater than 100 µM. The TGI [5] was greater than 100 µM, the GI50 [6] was 30.6 µM and the TGI [6] was 96.2 µM. For the same compound, the GI50 [7] was greater than 100 µM, the TGI [7] was greater than 100 µM and the GI50 [8] was 10.8 µM. The TGI [8] was greater than 100 µM, the GI50 [9] was 70.4 µM and the TGI [9] was greater than 100 µM. The GI50 [10] was 25.9 µM and the TGI [10] was 74.8 µM.

Cc1c2cc[nH]c(=O)c2c(C)c2c1[nH]c1cc(OCCN3CCN(C)CC3)ccc12 was tested, and the GI50 [1] was 1.13 µM, the TGI [1] was 2.9 µM and the GI50 [2] was 1.21 µM. For the same compound, the TGI [2] was 2.72 µM, the GI50 [3] was 1.5 µM and the TGI [3] was 2.98 µM. It also gave a GI50 [4] of 1.58 µM, a TGI [4] of 8.99 µM and a GI50 [5] of 2.51 µM. For the same compound, the TGI [5] was 7.72 µM, the GI50 [6] was 1.23 µM and the TGI [6] was 6.81 µM. It also gave a GI50 [7] of 0.473 µM, a TGI [7] of 3.83 µM and a GI50 [8] of 1.19 µM. For the same compound, the TGI [8] was 5.61 µM, the GI50 [9] was 1.88 µM and the TGI [9] was 12 µM. For the same compound, the GI50 [10] was 0.614 µM and the TGI [10] was 5.9 µM.

O=C(CC1=Nc2nnc(-c3nnc4n3C(=O)C(CC(=O)c3cccnc3)=N4)n2C1=O)c1cccnc1 gave a TGI [1] greater than 100 µM, a TGI [2] greater than 100 µM and a TGI [3] greater than 100 µM. It also gave a TGI [4] greater than 100 µM, a TGI [5] greater than 100 µM and a TGI [6] greater than 100 µM. For the same compound, the TGI [7] was greater than 100 µM, the TGI [8] was greater than 100 µM and the TGI [9] was greater than 100 µM. For the same compound, the TGI [10] was greater than 100 µM.

CC(=O)C1=C(O)C=C2Oc3c(C(=O)/C=C/c4cc(C(F)(F)F)cc(C(F)(F)F)c4)c(O)c(C)c(O)c3[C@]2(C)C1=O was tested, and the GI50 [1] was 0.436 µM, the TGI [1] was 1.27 µM and the GI50 [2] was 0.673 µM. The TGI [2] was 3.08 µM, the GI50 [3] was 0.747 µM and the TGI [3] was 2.96 µM. The GI50 [4] was 0.487 µM, the TGI [4] was 3.82 µM and the GI50 [5] was 0.728 µM. The TGI [5] was 4.54 µM, the GI50 [6] was 2.1 µM and the TGI [6] was 4.91 µM. For the same compound, the GI50 [7] was 0.552 µM, the TGI [7] was 2.26 µM and the GI50 [8] was 0.658 µM. The TGI [8] was 3.23 µM, the GI50 [9] was 0.462 µM and the TGI [9] was 2.54 µM. For the same compound, the GI50 [10] was 1.07 µM and the TGI [10] was 5.98 µM.

O=P([O-])(O)OP(=O)([O-])O.[NH-][C@H]1CCCC[C@@H]1[NH-].[OH-].[OH-].[Pt+4] showed a GI50 [1] of 22 µM, a TGI [1] of 92.2 µM and a GI50 [2] of 17.6 µM. For the same compound, the TGI [2] was 36.1 µM, the GI50 [3] was 31.5 µM and the TGI [3] was greater than 100 µM. It also gave a GI50 [4] greater than 100 µM, a TGI [4] greater than 100 µM and a GI50 [5] of 37 µM. The TGI [5] was greater than 100 µM, the GI50 [6] was 20.4 µM and the TGI [6] was 41 µM. The GI50 [7] was 16.6 µM, the TGI [7] was 42.1 µM and the GI50 [8] was greater than 100 µM. It also gave a TGI [8] greater than 100 µM, a GI50 [9] of 39.9 µM and a TGI [9] greater than 100 µM. The GI50 [10] was 19.9 µM and the TGI [10] was 38.6 µM.

With O=[N+]([O-])c1ccc(Nc2ccccc2-c2ccccc2)c2nonc12 the GI50 [1] was 4.44 µM, the TGI [1] was 18 µM and the GI50 [2] was 13.7 µM. For the same compound, the TGI [2] was 28.7 µM, the GI50 [3] was 17.2 µM and the TGI [3] was 45.3 µM. It also gave a GI50 [4] of 15.6 µM, a TGI [4] greater than 72.2 µM and a GI50 [5] of 12.3 µM. For the same compound, the TGI [5] was 79.1 µM, the GI50 [6] was 13.6 µM and the TGI [6] was 36.6 µM. For the same compound, the GI50 [7] was 20.8 µM, the TGI [7] was 87.5 µM and the GI50 [8] was 13.9 µM. For the same compound, the TGI [8] was 32.5 µM, the GI50 [9] was 13.2 µM and the TGI [9] was 28.2 µM. The GI50 [10] was 22 µM and the TGI [10] was greater than 75.7 µM.

COc1cccc([C@H]2CC(=O)c3cc4c(cc3N2)OCO4)c1 showed a GI50 [1] of 0.0226 µM, a TGI [1] of 0.0965 µM and a TGI [2] of 0.713 µM. It also gave a TGI [3] greater than 100 µM, a GI50 [4] of 0.0586 µM and a TGI [4] greater than 100 µM. The GI50 [5] was 0.0414 µM, the TGI [5] was greater than 100 µM and the TGI [6] was greater than 100 µM. It also gave a GI50 [7] of 0.0763 µM, a TGI [7] greater than 100 µM and a GI50 [8] of 0.0336 µM. For the same compound, the TGI [8] was 1.25 µM, the GI50 [9] was 0.0434 µM and the TGI [9] was greater than 100 µM. It also gave a GI50 [10] of 0.556 µM and a TGI [10] greater than 100 µM.

Work on CCCN(CCC)CCCNCc1cc(I)cc(C)c1O yielded a GI50 [1] of 5.54 µM, a TGI [1] of 18.6 µM and a GI50 [2] of 9.91 µM. The TGI [2] was 23.2 µM, the GI50 [3] was 15.4 µM and the TGI [3] was 28.9 µM. The GI50 [4] was 1.28 µM, the TGI [4] was 6.06 µM and the GI50 [5] was 11.5 µM. It also gave a TGI [5] of 27.7 µM, a GI50 [6] of 14.6 µM and a TGI [6] of 29 µM. For the same compound, the GI50 [7] was 17.1 µM, the TGI [7] was 34.8 µM and the GI50 [8] was 15 µM. The TGI [8] was 30 µM, the GI50 [9] was 15.3 µM and the TGI [9] was 29.7 µM. The GI50 [10] was 16.3 µM and the TGI [10] was 31 µM.
